Laboratory results as given in patent publication US5968912A, “Methods for immunosuppressing” (Immune Modulation, Inc., priority 1997, dated 1999).

What was measured:
Type in all cases: cell-based, human
[1] = tested on: mononuclear leukocytes (Two-way MLR); experiment: Two-way mixed leukocyte reaction (MLR), 3H-thymidine incorporation; details: for inhibition at 0.01 µM / inhibition at 0.1 µM / inhibition at 1 µM / inhibition at 10 µM / inhibition at 100 µM: Homo sapiens, Leukocyte
[2] = tested on: Protein Kinase-C-Mediated T-cell Proliferation (PBMC); experiment: PK-C-mediated T-cell proliferation (PMA + A23187); details: PMA 1.25 ng/mL + A23187 0.25 μM; for Proliferation: 100 μM; for inhibition at 100 µM: Homo sapiens, T-cell
Experimental: Determination of the effect of HE-33 on PK-C-mediated signaling pathway
PBMC of a healthy volunteer were cultured in 96-well microtiter plates at 2×10^5 cells/well. […] Forskolin is an agent well known to increase intacellular cAMP levels by activating adenylate cyclase. Cultures were incubated for 3 days at 37° C. in a 5% CO2 incubator. Proliferative response was determined by incorporation of ^3 H-thymidine.. The results were expressed in CPM and % inhibition of proliferation (Table 7).

IL-2 = IL-2 production in PHA-stimulated PBMC cultures; parameters: % Inhibition of IL-2 production: concentration or dose not given beside the values
Experimental: (§1) Production of autocrine growth factors (IL-2, IL-4, IL-10 and Interferon-gamma) in PHA-stimulated human PBMC cultures
(§2) Culture supernatants were collected at the times indicated and frozen at -20° C. At the end of 96 hr., all supernatants were assayed by enzyme immunoassay for the presence of the cytokines: interleukin-2, -4, -10 and interferon (IFN)-gamma. Results were expressed in pg/mL concentration of cytokine and % inhibition of cytokine production.

IL-10 = IL-10 production in PHA-stimulated PBMC cultures; parameters: % Inhibition of IL-10 production: concentration or dose not given beside the values
Experimental: as §1, §2

Interferon-gamma = Interferon-gamma production in PHA-stimulated PBMC cultures; parameters: % Inhibition of IFN-γ production: concentration or dose not given beside the values
Experimental: as §1, §2

IL-4 = IL-4 production in PHA-stimulated PBMC cultures; parameters: % Inhibition of IL-4 production: concentration or dose not given beside the values
Experimental: as §1, §2

Question: Which results are given for Cc1ccc(S(=O)(=O)O[C@@H]2[C@@H]3OP(=O)(O)OC[C@H]3O[C@H]2n2cnc3c(N)ncnc32)cc1 [Compound 1-5, 2'-O-Tosyl-c-AMP]?
Answer: inhibition at 0.01 µM [1]: 0%; inhibition at 0.1 µM [1]: 16%; inhibition at 1 µM [1]: 25%; inhibition at 10 µM [1]: 24%; inhibition at 100 µM [1]: 58%

Question: For CCCN(CCC)c1ncnc2c1ncn2[C@@H]1O[C@@H]2COP(=O)(O)O[C@H]2[C@H]1OS(=O)(=O)c1ccc(C)cc1 [Compound 1-15, N^6,N^6-di-n-Propyl-2'-O-tosyl-c-AMP], which inhibition at 0.01 µM [1] is on record?
Answer: Its inhibition at 0.01 µM is 0%.

Question: And the inhibition at 0.1 µM [1]?
Answer: The inhibition at 0.1 µM was 6%.

Question: And the inhibition at 1 µM [1]?
Answer: Its inhibition at 1 µM is 9%.

Question: What about the inhibition at 10 µM [1] of the same molecule?
Answer: The inhibition at 10 µM was 25%.

Question: What about the inhibition at 100 µM [1] of the same molecule?
Answer: Its inhibition at 100 µM is 99.4%.

Question: Which results are given for CCCNc1ncnc2c1ncn2[C@@H]1O[C@@H]2COP(=O)(O)O[C@H]2[C@H]1O [Compound 1-16]?
Answer: inhibition at 0.01 µM [1]: 0%; inhibition at 0.1 µM [1]: 2.2%; inhibition at 1 µM [1]: 12.5%; inhibition at 10 µM [1]: 90.7%; inhibition at 100 µM [1]: 99.8%

Question: Which inhibition at 0.01 µM [1] does the source give for CCCCN(CCCC)c1ncnc2c1ncn2[C@@H]1O[C@@H]2COP(=O)(O)O[C@H]2[C@H]1OS(=O)(=O)c1ccc(C)cc1 [Compound 1-22] here?
Answer: The inhibition at 0.01 µM was 0%.

Question: And the inhibition at 0.1 µM [1]?
Answer: Its inhibition at 0.1 µM is 7%.

Question: What about the inhibition at 1 µM [1] of the same molecule?
Answer: Its inhibition at 1 µM is 4%.

Question: What about the inhibition at 10 µM [1] of the same molecule?
Answer: Its inhibition at 10 µM is 0%.

Question: What about the inhibition at 100 µM [1] of the same molecule?
Answer: Its inhibition at 100 µM is 99%.

Question: Which results are given for CCCCN(CCCC)c1ncnc2c1ncn2[C@@H]1O[C@@H]2COP(=O)(O)O[C@H]2[C@H]1O [Compound 1-24]?
Answer: inhibition at 0.01 µM [1]: 0%; inhibition at 0.1 µM [1]: 27%; inhibition at 1 µM [1]: 78%; inhibition at 10 µM [1]: 97%; inhibition at 100 µM [1]: 100%; Inhibitory capacity on two-way MLR, in words ([1]; two-way MLR): significant inhibitory capacity; Proliferation [2]: 16 CPM; inhibition at 100 µM [2]: 98%

Question: How did the inhibition at 1 µM [1] turn out when CCCN(CCC)c1ncnc2c1nc(SCc1ccccc1)n2[C@@H]1O[C@@H]2COP(=O)(O)O[C@H]2[C@H]1O [Compound 1-42] was run?
Answer: The inhibition at 1 µM was 0%.

Question: What about the inhibition at 10 µM [1] of the same molecule?
Answer: Its inhibition at 10 µM is 31%.

Question: And the inhibition at 100 µM [1]?
Answer: The inhibition at 100 µM was 89%.

Question: CCCN(CCC)c1ncnc2c1ncn2[C@@H]1O[C@H](CO)[C@@H](O)[C@H]1O [Compound 1-46] was tested. Which inhibition at 1 µM [1] did it give?
Answer: The inhibition at 1 µM was 12%.

Question: And the inhibition at 10 µM [1]?
Answer: The inhibition at 10 µM was 83%.

Question: What about the inhibition at 100 µM [1] of the same molecule?
Answer: Its inhibition at 100 µM is 98%.

Question: With CCN(CC)c1ncnc2c1ncn2[C@@H]1O[C@H](CO)[C@@H](O)[C@H]1O [Compound 1-50] as the molecule, how does the inhibition at 1 µM [1] read?
Answer: The inhibition at 1 µM was 13%.

Question: What about the inhibition at 10 µM [1] of the same molecule?
Answer: Its inhibition at 10 µM is 45%.

Question: And the inhibition at 100 µM [1]?
Answer: Its inhibition at 100 µM is 88%.

Question: For C=CC[C@@H]1/C=C(\C)C[C@H](C)C[C@H](OC)[C@H]2O[C@@](O)(C(=O)C(=O)N3CCCC[C@H]3C(=O)O[C@H](/C(C)=C/[C@@H]3CC[C@@H](O)[C@H](OC)C3)[C@H](C)[C@@H](O)CC1=O)[C@H](C)C[C@@H]2OC [Fk506, reference compound], which “% Inhibition of IL-2 production” value (IL-2; 24 hours) is on record?
Answer: Its value is 100%.

Question: And the IL-2 production (IL-2; 24 hours)?
Answer: The IL-2 production was 0.7 pg/mL.

Question: And the “% Inhibition of IL-2 production” value (IL-2; 48 hours)?
Answer: The value was 97%.

Question: What about the IL-2 production (IL-2; 48 hours) of the same molecule?
Answer: Its IL-2 production is 16 pg/mL.

Question: And the “% Inhibition of IL-2 production” value (IL-2; 72 hours)?
Answer: Its value is 91%.

Question: What about the IL-2 production (IL-2; 72 hours) of the same molecule?
Answer: Its IL-2 production is 16 pg/mL.

Question: And the “% Inhibition of IL-2 production” value (IL-2; 96 hours)?
Answer: Its value is 0%.

Question: What about the IL-2 production (IL-2; 96 hours) of the same molecule?
Answer: Its IL-2 production is 23 pg/mL.

Question: What about the “% Inhibition of IL-10 production” value (IL-10; 24 hours) of the same molecule?
Answer: The value was 69%.

Question: What about the IL-10 production (IL-10; 24 hours) of the same molecule?
Answer: The IL-10 production was 173 pg/mL.

Question: And the “% Inhibition of IL-10 production” value (IL-10; 48 hours)?
Answer: The value was 77%.

Question: And the IL-10 production (IL-10; 48 hours)?
Answer: The IL-10 production was 235 pg/mL.

Question: What about the “% Inhibition of IL-10 production” value (IL-10; 72 hours) of the same molecule?
Answer: Its value is 61%.

Question: And the IL-10 production (IL-10; 72 hours)?
Answer: The IL-10 production was 228 pg/mL.

Question: And the “% Inhibition of IL-10 production” value (IL-10; 96 hours)?
Answer: The value was 76%.

Question: And the IL-10 production (IL-10; 96 hours)?
Answer: Its IL-10 production is 200 pg/mL.

Question: And the “% Inhibition of IFN-γ production” value (Interferon-gamma; 24 hours)?
Answer: Its value is 100%.

Question: And the IFN-γ production (Interferon-gamma; 24 hours)?
Answer: Its IFN-γ production is 0 pg/mL.

Question: And the “% Inhibition of IFN-γ production” value (Interferon-gamma; 48 hours)?
Answer: The value was 98%.

Question: What about the IFN-γ production (Interferon-gamma; 48 hours) of the same molecule?
Answer: The IFN-γ production was 155 pg/mL.

Question: And the “% Inhibition of IFN-γ production” value (Interferon-gamma; 72 hours)?
Answer: The value was 92%.

Question: And the IFN-γ production (Interferon-gamma; 72 hours)?
Answer: The IFN-γ production was 232 pg/mL.

Question: And the “% Inhibition of IFN-γ production” value (Interferon-gamma; 96 hours)?
Answer: The value was 96%.

Question: What about the IFN-γ production (Interferon-gamma; 96 hours) of the same molecule?
Answer: Its IFN-γ production is 225 pg/mL.

Question: And the “% Inhibition of IL-4 production” value (IL-4; 24 hours)?
Answer: The value was 98%.

Question: And the IL-4 production (IL-4; 24 hours)?
Answer: Its IL-4 production is 18 pg/mL.

Question: What about the “% Inhibition of IL-4 production” value (IL-4; 48 hours) of the same molecule?
Answer: Its value is 99%.

Question: What about the IL-4 production (IL-4; 48 hours) of the same molecule?
Answer: The IL-4 production was 17 pg/mL.

Question: And the “% Inhibition of IL-4 production” value (IL-4; 72 hours)?
Answer: The value was 99%.

Question: What about the IL-4 production (IL-4; 72 hours) of the same molecule?
Answer: The IL-4 production was 10 pg/mL.

Question: And the “% Inhibition of IL-4 production” value (IL-4; 96 hours)?
Answer: Its value is 93%.

Question: And the IL-4 production (IL-4; 96 hours)?
Answer: Its IL-4 production is 10 pg/mL.

Question: What does the source list for C=C[C@@]1(C)CC(=O)[C@]2(O)[C@@]3(C)[C@@H](O)CCC(C)(C)[C@@H]3[C@H](O)[C@H](OC(C)=O)[C@@]2(C)O1 [Forskolin, reference compound]?
Answer: inhibition at 0.01 µM [1]: 20%; inhibition at 0.1 µM [1]: 28%; inhibition at 1 µM [1]: 31%; inhibition at 10 µM [1]: 55%; inhibition at 100 µM [1]: 60%; Proliferation [2]: 476 CPM; inhibition at 100 µM [2]: 55%

Question: Which Proliferation [2] does the source give for CCCC(=O)Nc1ncnc2c1ncn2[C@@H]1O[C@@H]2COP(=O)(O)O[C@H]2[C@H]1OC(=O)CCC [dbcAMP, reference compound] here?
Answer: Its Proliferation is 645 CPM.

Question: And the inhibition at 100 µM [2]?
Answer: Its inhibition at 100 µM is 38%.
